Tested on: Complex I
Assay: not given
Conditions: natural products from Cubé resin; cited from earlier work
For `COc1cc2c(cc1OC)[C@@H]1C(=O)c3ccc4c(c3O[C@@H]1CO2)C=CC(C)(C)O4` [deguelin], the IC50 is given as 6.9 nM. For `COc1cc(OC)c(C2COc3c(ccc4c3C=CC(C)(C)O4)C2=O)cc1OC` (centres unmarked) [lonchocarpusone], the IC50 is listed as 3300 nM.

Molecular target: NADH:ubiquinone oxidoreductase (Complex I) (Bos taurus, UniProt P03887+P17694+P42026)
Sequence (P03887 whole entry): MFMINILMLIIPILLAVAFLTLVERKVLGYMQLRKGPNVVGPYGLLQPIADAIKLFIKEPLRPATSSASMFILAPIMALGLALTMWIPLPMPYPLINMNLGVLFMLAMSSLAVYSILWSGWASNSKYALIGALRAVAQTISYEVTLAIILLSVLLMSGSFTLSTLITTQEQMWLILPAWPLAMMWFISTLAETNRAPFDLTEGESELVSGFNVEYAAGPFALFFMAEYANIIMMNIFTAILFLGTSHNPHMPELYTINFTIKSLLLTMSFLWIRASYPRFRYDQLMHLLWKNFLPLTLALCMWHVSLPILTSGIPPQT
Sequence (P42026 38-216): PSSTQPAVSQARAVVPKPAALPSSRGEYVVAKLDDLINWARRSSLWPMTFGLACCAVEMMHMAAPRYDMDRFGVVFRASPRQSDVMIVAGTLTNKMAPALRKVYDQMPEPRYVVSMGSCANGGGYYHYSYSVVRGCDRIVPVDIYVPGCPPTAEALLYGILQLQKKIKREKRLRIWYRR
Sequence (P17694 34-463): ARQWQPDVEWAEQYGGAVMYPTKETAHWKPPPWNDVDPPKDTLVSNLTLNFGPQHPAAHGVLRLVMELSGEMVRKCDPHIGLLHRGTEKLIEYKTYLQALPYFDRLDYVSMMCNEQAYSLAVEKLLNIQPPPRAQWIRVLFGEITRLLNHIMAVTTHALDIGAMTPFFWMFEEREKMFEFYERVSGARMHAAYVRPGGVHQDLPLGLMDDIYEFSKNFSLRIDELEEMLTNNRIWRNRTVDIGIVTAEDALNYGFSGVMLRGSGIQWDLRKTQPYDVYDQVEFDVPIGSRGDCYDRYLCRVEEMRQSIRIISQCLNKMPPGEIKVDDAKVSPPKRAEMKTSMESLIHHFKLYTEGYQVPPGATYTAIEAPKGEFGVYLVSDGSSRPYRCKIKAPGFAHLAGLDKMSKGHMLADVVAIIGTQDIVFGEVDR
Assay: inhibitory potency for NADH:ubiquinone oxidoreductase activity in vitro using bovine heart electron transport particles
Format: biochemical
Conditions: bovine heart electron transport particles
Experimental: This primary library was screened for inhibitory potency against NADH:ubiquinone oxidoreductase activity as described below. […] As described below, a series of focused libraries were then synthesized using a combination of solid and solution phase chemistry in an attempt to evaluate particular structural sub-regions (denoted I-IV in FIG. 9) of the lead structure, thus allowing structure activity relationships to be developed.
(§1) SAR optimization was carried out on each of the four regions (I-IV) of interest guided by the inhibitory potency for NADH:ubiquinone oxidoreductase activity in vitro using bovine heart electron transport particles (see Singer (Singer, T. P. (1974). In Methods of Biochemical Analysis (Glick, D. ed., Wiley New York), 22, pp. 123-175) for details).
as §1, with “FIG. 15 is a graphical summary of structure activity trends observed for benzopyran-based inhibitors of NADH:ubiquinone oxidoreductase. SAR” for “SAR”, “T.P.” for “T. P.”
For `COc1ccc(COC(=O)c2ccc3c(c2)C=CC(C)(C)O3)cc1OC` [Compound 42], the IC50 was 220 nM. For `COc1cc(COC(=O)c2ccc3c(c2)C=CC(C)(C)O3)cc(OC)c1OC` [Compound 55], the IC50 was 55 nM. For `COc1cc(COC(=O)c2ccc3c(c2)CCC(C)(C)O3)cc(OC)c1OC` [Compound 140], the IC50 was 53 nM. Molecule `COc1cc(CC(=O)c2ccc3c(c2)C=CC(C)(C)O3)cc(OC)c1OC` [Compound 158] has an IC50 of 39 nM. Molecule `C=C(Cc1cc(OC)c(OC)c(OC)c1)c1ccc2c(c1)C=CC(C)(C)O2` [Compound 163] has an IC50 of 19 nM. In the case of `COc1cc(CC(=O)c2ccc3c(c2)CCC(C)(C)O3)cc(OC)c1OC` [Compound 165], the IC50 is reported as 24 nM. `C=C(Cc1cc(OC)c(OC)c(OC)c1)c1ccc2c(c1)CCC(C)(C)O2` [Compound 167] gave an IC50 of 18 nM. Molecule `COc1cc(CC(=C(Cl)Cl)c2ccc3c(c2)CCC(C)(C)O3)cc(OC)c1OC` [Compound 168] has an IC50 of 2700 nM. `COc1cc(CC(=C(F)F)c2ccc3c(c2)CCC(C)(C)O3)cc(OC)c1OC` [Compound 169] showed an IC50 of 48 nM. With `COc1cc(CSc2ccc3c(c2)C=CC(C)(C)O3)cc(OC)c1OC` [Compound 178] the IC50 was 43 nM.

Same assay, conditions: relative to parent/lead compound
With `COc1cc(CC(=O)c2ccc3c(c2)CCC(C)(C)O3)cc(OC)c1OC` [Compound 165] the “inhibitory activity” value was “almost twice as active as the parent olefin”.

Tested on: Complex I
Assay: Complex I activity in in vitro assays (literature, Fang/Casida)
Format: biochemical
Conditions: ratio of IC50 values
Text: Novel lead compounds were identified through the screening of natural product-like combinatorial libraries. Separation of the constituents of this resin provided the major components rotenone (1, FIG. 2) and deguelin (7, FIG. 3) along with minor constituents, including dehydrodeguelin (8), oxadehydrodeguelin (9), lonchocarpusone (10), 4-hydroxylonchocarpene (11), 4-hydroxy-3-methoxylonchocarpene (12), stilbenes 13-15, and isoflavones 16-18 (FIG. 3) among others. […] Despite the diversity in these bridging units, all of the compounds (7-18) inhibited Complex I activity in in vitro assays (Fang, N.; Casida, J. E. J. Nat. Prod. 1999, 62, 205-210; Fang, N.; et al. Chem. Res. Toxicol. 1997, 10, 853-858). […] Given this effect, it was envisioned that screening a benzopyran-based combinatorial library wherein this “bridge” unit was varied (i.e. structure 19, FIG. 3) might lead to the identification of interesting structure activity relationships (SAR), and potentially to new lead compounds in this series.
For `COc1cc2c(cc1OC)[C@@H]1C(=O)c3ccc4c(c3O[C@@H]1CO2)C=CC(C)(C)O4` [deguelin], the “fold more active than lonchocarpusone” value was about 500 fold.

Source: patent US7410998B2, “Inhibitors of NADH:ubiquinone oxidoreductase” (The Scripps Research Institute, priority 2000, dated 2008)
